# Measurements published in patent publication US20250243208A1, “BICYCLIC HETEROCYCLES AS MRGPRX2 ANTAGONISTS” (Incyte Corporation, priority 2024, published 2025).
# Biological target: T1, MRGPRX2 (Homo sapiens, UniProt Q96LB1)
# T1 sequence (Q96LB1 1-330): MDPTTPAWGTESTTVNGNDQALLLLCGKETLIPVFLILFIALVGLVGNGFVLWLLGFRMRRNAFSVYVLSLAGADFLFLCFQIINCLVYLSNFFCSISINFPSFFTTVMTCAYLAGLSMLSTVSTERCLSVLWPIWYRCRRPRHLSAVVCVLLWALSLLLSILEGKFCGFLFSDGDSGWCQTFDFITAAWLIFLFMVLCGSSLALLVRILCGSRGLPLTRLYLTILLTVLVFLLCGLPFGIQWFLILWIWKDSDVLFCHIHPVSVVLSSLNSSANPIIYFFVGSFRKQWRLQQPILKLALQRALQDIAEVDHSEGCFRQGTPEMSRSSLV
# Experiment: MRGPRX2 β-Arrestin recruitment assay (PathHunter CHO-K1)
# Assay type: cell-based
# Parameters: host or cells: PathHunter CHO-K1
# Details: PathHunter CHO-K1 cells, agonist Cortistatin 14 0.25 μM
# Source text: Example C: MRGPRX2 β-Arrestin Assay
# This assay measures compound inhibition of β-Arrestin recruitment, which is part of the G protein-independent pathway that results from the ligand-activated GPCR phosphorylation by specific GPCR kinases. The PathHunter CHO-K1 MRPGRX2 B-Arrestin Cell line stably expressing ProLink tagged MRGPRX2 and Enzyme Acceptor Tagged B-Arrestin was purchased from Eurofins DiscoverX, (Fremont, CA).
# The cells were maintained in culture medium from the Europhins DiscoverX Cell Culture Kit-107 which includes FBS, hygromycin B and G418. For the assay, the cells were harvested and were resuspended with Cell Plating Reagent 2 (Eurofins DiscoverX). Cells were added 10000 cells in 25 μL/well to a 384-well black cell culture plate (Greiner VWR, Radnor, PA) which contained 125 nL/well of compound at a selected serially diluted concentration range or DMSO. The plate was incubated at 37° C. with 5% CO2 for 1 h. 2 μL/well of agonist Cortistatin 14 was diluted in Protein Dilution Buffer, (Eurofins DiscoverX) for a final concentration of 0.25 μM, was added and the plate was incubated at 37° C. with 5% CO2 for 90 min. 14 μL/well of Detection Reagent Mix (PathHunter Detection Kit, Eurofins DiscoverX) was added to the plates and further incubated for 1 h in the dark. Plates were read on the PHERAstar microplate reader (BMG Labtech Cary, NC) measuring luminescence 0.1 to 1 s per well. Data was normalized using DMSO only wells and wells with high concentration of reference antagonist as controls. Compound IC50 curves were globally fitted with 3- or 4-parameter Hill equation in a Genedata Screener (Genedata Basel, Switzerland).
row,Compound,IC50 [nM]
1,"OC[C@H]1CCN(C(CNc2cc(C(F)(F)F)nc3cc(C(F)(F)F)nn23)c2ccc(F)cc2)C1 (mixture of isomers) [Example 31, ((3S)-1-(2-((2,5-Bis(trifluoromethyl)pyrazolo[1,5-a]pyrimidin-7-yl)amino)-1-(4-fluorophenyl)ethyl)pyrrolidin-3-yl)methanol]",0.1 to 100
2,"CC(CNc1cc(C(F)(F)F)nc2cc(C(F)(F)F)nn12)(c1ccc(F)cc1)C1CCN(C(N)=O)CC1 (racemic) [Example 2, 4-(1-((2,5-Bis(trifluoromethyl)pyrazolo[1,5-a]pyrimidin-7-yl)amino)-2-(4-fluorophenyl)propan-2-yl)piperidine-1-carboxamide]",0.1 to 100
3,"Cn1cc(NC2CN(C(CNc3cc(C(F)(F)F)nc4cc(C(F)(F)F)nn34)c3ccc(F)cc3)C2)nn1 (racemic) [Example 27, N-(2-(4-Fluorophenyl)-2-(3-((1-methyl-1H-1,2,3-triazol-4-yl)amino)azetidin-1-yl)ethyl)-2,5-bis(trifluoromethyl)pyrazolo[1,5-a]pyrimidin-7-amine]",0.1 to 100
4,"CC(CNc1cc(C(F)(F)F)nc2cc(C(F)(F)F)nn12)(c1ccc(F)cc1)C1CCN(C(N)=O)C1 (single isomer, unassigned) [Example 3, 3-(1-((2,5-Bis(trifluoromethyl)pyrazolo[1,5-a]pyrimidin-7-yl)amino)-2-(4-fluorophenyl)propan-2-yl)pyrrolidine-1-carboxamide]",0.1 to 100
5,"OC1CC2CC1CN2C(CNc1cc(C(F)(F)F)nc2cc(C(F)(F)F)nn12)c1ccc(F)cc1 (centres unmarked) [Example 22, 2-(2-((2,5-Bis(trifluoromethyl)pyrazolo[1,5-a]pyrimidin-7-yl)amino)-1-(4-fluorophenyl)ethyl)-2-azabicyclo[2.2.1]heptan-5-ol]",0.1 to 100
6,"Fc1ccc(C(CNc2cc(C(F)(F)F)nc3cc(C(F)(F)F)nn23)N2CC(c3ccccn3)C2)cc1 (racemic) [Example 24, N-(2-(4-Fluorophenyl)-2-(3-(pyridin-2-yl)azetidin-1-yl)ethyl)-2,5-bis(trifluoromethyl)pyrazolo[1,5-a]pyrimidin-7-amine]",0.1 to 100
7,"NC(=O)N1CC(C(CO)(CNc2cc(C(F)(F)F)nc3cc(C(F)(F)F)nn23)c2ccc(F)cc2)C1 (racemic) [Example 21, 3-(1-((2,5-Bis(trifluoromethyl)pyrazolo[1,5-a]pyrimidin-7-yl)amino)-2-(4-fluorophenyl)-3-hydroxypropan-2-yl)azetidine-1-carboxamide]",0.1 to 100
8,"C[C@@]1(O)CCN(C(CNc2cc(C(F)(F)F)nc3cc(C(F)(F)F)nn23)c2ccc(F)cc2)C1 (mixture of isomers) [Example 30, (3R)-1-(2-((2,5-Bis(trifluoromethyl)pyrazolo[1,5-a]pyrimidin-7-yl)amino)-1-(4-fluorophenyl)ethyl)-3-methylpyrrolidin-3-ol]",0.1 to 100
9,"CC(CNc1cc(C(F)(F)F)nc2cc(C(F)(F)F)nn12)(c1ccc(F)cc1)C1CCN(C(N)=O)C1 (single isomer, unassigned) [Example 4, 3-(1-((2,5-Bis(trifluoromethyl)pyrazolo[1,5-a]pyrimidin-7-yl)amino)-2-(4-fluorophenyl)propan-2-yl)pyrrolidine-1-carboxamide]",0.1 to 100
10,"NC(=O)N1CCC(C(CNc2cc(C(F)(F)F)nc3cc(C(F)(F)F)nn23)c2ccc(F)cc2)CC1 (racemic) [Example 15, 4-(2-((2,5-Bis(trifluoromethyl)pyrazolo[1,5-a]pyrimidin-7-yl)amino)-1-(4-fluorophenyl)ethyl)piperidine-1-carboxamide]",0.1 to 100
11,"CCC(CNc1cc(C(F)(F)F)nc2cc(C(F)(F)F)nn12)(c1ccc(F)cc1)C1CN(C(N)=O)C1 (racemic) [Example 1, 3-(1-((2,5-Bis(trifluoromethyl)pyrazolo[1,5-a]pyrimidin-7-yl)amino)-2-(4-fluorophenyl)butan-2-yl)azetidine-1-carboxamide]",0.1 to 100
12,"O=C1NC2(CO1)CN(C(CNc1cc(C(F)(F)F)nc3cc(C(F)(F)F)nn13)c1ccc(F)cc1)C2 (racemic) [Example 42, 2-(2-((2,5-Bis(trifluoromethyl)pyrazolo[1,5-a]pyrimidin-7-yl)amino)-1-(4-fluorophenyl)ethyl)-7-oxa-2,5-diazaspiro[3.4]octan-6-one]",0.1 to 100
13,"Cn1nc(N2CC(C(C)(CNc3cc(C(F)(F)F)nc4cc(C(F)(F)F)nn34)c3ccc(F)cc3)C2)ccc1=O (racemic) [Example 12, 6-(3-(1-((2,5-Bis(trifluoromethyl)pyrazolo[1,5-a]pyrimidin-7-yl)amino)-2-(4-fluorophenyl)propan-2-yl)azetidin-1-yl)-2-methylpyridazin-3(2H)-one]",0.1 to 100
14,"NC(=O)N1CCC(C(CO)(CNc2cc(C(F)(F)F)nc3cc(C(F)(F)F)nn23)c2ccc(F)cc2)C1 (single isomer, unassigned) [Example 19, 3-(1-((2,5-Bis(trifluoromethyl)pyrazolo[1,5-a]pyrimidin-7-yl)amino)-2-(4-fluorophenyl)-3-hydroxypropan-2-yl)pyrrolidine-1-carboxamide]",0.1 to 100

# Results, then the compound that gave them:
row,IC50 [nM],Compound
1,0.1 to 100,"O=C(NCC(F)(F)F)N1CC2(C1)CN(C(CNc1cc(C(F)(F)F)nc3cc(C(F)(F)F)nn13)c1ccc(F)cc1)C2 (racemic) [Example 41, 6-(2-((2,5-Bis(trifluoromethyl)pyrazolo[1,5-a]pyrimidin-7-yl)amino)-1-(4-fluorophenyl)ethyl)-N-(2,2,2-trifluoroethyl)-2,6-diazaspiro[3.3]heptane-2-carboxamide]"
2,0.1 to 100,"[2H]C([2H])([2H])NC(=O)N1CC2(C1)CN(C(CNc1cc(C(F)(F)F)nc3cc(C(F)(F)F)nn13)c1ccc(F)cc1)C2 (racemic) [Example 40, 6-(2-((2,5-Bis(trifluoromethyl)pyrazolo[1,5-a]pyrimidin-7-yl)amino)-1-(4-fluorophenyl)ethyl)-N-(methyl-d3)-2,6-diazaspiro[3.3]heptane-2-carboxamide]"
3,0.1 to 100,"OC1CCC12CN(C(CNc1cc(C(F)(F)F)nc3cc(C(F)(F)F)nn13)c1ccc(F)cc1)C2 (mixture of isomers) [Example 34, 2-(2-((2,5-Bis(trifluoromethyl)pyrazolo[1,5-a]pyrimidin-7-yl)amino)-1-(4-fluorophenyl)ethyl)-2-azaspiro[3.3]heptan-5-ol]"
4,0.1 to 100,"NC(=O)N1CC2(C1)CN(C(CNc1cc(C(F)(F)F)nc3cc(C(F)(F)F)nn13)c1ccc(F)cc1)C2 (single isomer, unassigned) [Example 29, 6-(2-((2,5-Bis(trifluoromethyl)pyrazolo[1,5-a]pyrimidin-7-yl)amino)-1-(4-fluorophenyl)ethyl)-2,6-diazaspiro[3.3]heptane-2-carboxamide]"
5,0.1 to 100,"O=C1CCC2(CN(C(CNc3cc(C(F)(F)F)nc4cc(C(F)(F)F)nn34)c3ccc(F)cc3)C2)N1 (racemic) [Example 32, 2-(2-((2,5-Bis(trifluoromethyl)pyrazolo[1,5-a]pyrimidin-7-yl)amino)-1-(4-fluorophenyl)ethyl)-2,5-diazaspiro[3.4]octan-6-one]"
6,0.1 to 100,"OC1CCC2(CC1)CN(C(CNc1cc(C(F)(F)F)nc3cc(C(F)(F)F)nn13)c1ccc(F)cc1)C2 (racemic) [Example 23, 2-(2-((2,5-Bis(trifluoromethyl)pyrazolo[1,5-a]pyrimidin-7-yl)amino)-1-(4-fluorophenyl)ethyl)-2-azaspiro[3.5]nonan-7-ol]"
7,0.1 to 100,"O=C(CO)N1CC2(C1)CN(C(CNc1cc(C(F)(F)F)nc3cc(C(F)(F)F)nn13)c1ccc(F)cc1)C2 (racemic) [Example 39, 1-(6-(2-((2,5-Bis(trifluoromethyl)pyrazolo[1,5-a]pyrimidin-7-yl)amino)-1-(4-fluorophenyl)ethyl)-2,6-diazaspiro[3.3]heptan-2-yl)-2-hydroxyethan-1-one]"
8,0.1 to 100,"NC(=O)N1CC2(CCN(C(CNc3cc(C(F)(F)F)nc4cc(C(F)(F)F)nn34)c3ccc(F)cc3)C2)C1 (racemic) [Example 33, 6-(2-((2,5-Bis(trifluoromethyl)pyrazolo[1,5-a]pyrimidin-7-yl)amino)-1-(4-fluorophenyl)ethyl)-2,6-diazaspiro[3.4]octane-2-carboxamide]"
9,0.1 to 100,"N#CC1(C(=O)N2CC3(C2)CN(C(CNc2cc(C(F)(F)F)nc4cc(C(F)(F)F)nn24)c2ccc(F)cc2)C3)CC1 (racemic) [Example 38, 1-(6-(2-((2,5-Bis(trifluoromethyl)pyrazolo[1,5-a]pyrimidin-7-yl)amino)-1-(4-fluorophenyl)ethyl)-2,6-diazaspiro[3.3]heptane-2-carbonyl)cyclopropane-1-carbonitrile]"
